Reference: patent US20120116069A1, “GLUCOSE METABOLISM-IMPROVING AGENT AND GLUCOSE METABOLISM-IMPROVING COMPOSITION” (LION CORPORATION, priority 2009, published 2012)

Tested on: model mice of hyperglycemia (KKAy mouse)
Assay: Blood sugar level of KKAy mice after one-week main breeding on high fat diet containing PT or PD
Format: in vivo
Conditions: 0.1% by mass in high fat diet (control group 335.4 mg/dL)
Protocol: Twenty-four model mice of hyperglycemia (KKAy mouse (product of CLEA Japan, Inc.), male, four weeks old) were preliminarily bred for one week in individual cages under the following conditions: temperature: room temperature (22° C.±1° C.), humidity: 50%±5%, and light-dark cycle: 12 hours. Eight grams per day of CE-2 (product of CLEA Japan, Inc.) was given to each mouse as feed during the preliminary breeding, while water was given ad libitum. After completion of the preliminary breeding, the mice were measured for body weight and blood sugar level. Then, they were divided into three groups, each containing eight mice, so that the body weights and blood sugar levels were averaged in the three groups, followed by main breeding in a manner described below. […] GB SENSOR (product of Sanko Junyaku Co., Ltd.) using the whole blood sampled from the tale vein of the mouse. The mice of one group were subjected to main breeding for one week under the conditions that eight grams per day of a commercially available high fat diet (trade name: Quick Fat, product of CLEA Japan, Inc.) was given to each mouse while water was given ad libitum. […] Hereinafter, this group may be referred to as “PD-administered group.” After the one-week main breeding, the mice were measured for blood sugar level and body weight, and then were subjected to measurement of the amount of ^13CO2 excreted.

CC1(C)CCC[C@](C)([C@H]2CC[C@]3(C)[C@@H]2[C@H](O)C[C@@H]2[C@@]4(C)CC[C@H](O)C(C)(C)[C@@H]4[C@@H](O)C[C@]23C)O1 [PT, panaxatriol]
blood sugar level: 199.3 mg/dL

CC1(C)CCC[C@](C)([C@H]2CC[C@]3(C)[C@@H]2[C@H](O)C[C@@H]2[C@@]4(C)CC[C@H](O)C(C)(C)[C@@H]4CC[C@]23C)O1 [PD, panaxadiol]
blood sugar level: 231.6 mg/dL
